Earlier results in patent publication US20130022829A1, “OIL BORNE WOOD PRESERVING COMPOSITION FOR TREATMENT OF POLES, POSTS, PILING, CROSSTIES AND OTHER WOODED STRUCTURES” (Osmose, Inc., priority 2009, published 2013).

System: Poria
Details: background statement on copper soaps

Molecule | efficacy against copper tolerant fungi, e.g., Poria sp.
CCCCC(CC)C(=O)[O-].CCCCC(CC)C(=O)[O-].[Cu+2] (centres unmarked) [Cu-octoate] | insufficient efficacy
Cu-naphthenate | insufficient efficacy
